This test deals with T1, chicken gizzard smooth muscle myosin subfragment-1 chemically crosslinked to either cardiac or skeletal actin (Gallus gallus, UniProt P10587).
T1 construct: chicken gizzard smooth muscle myosin subfragment-1; from tissue; host or cells: chicken gizzard
Kind of test: Dose dependent smooth muscle myosin ATPase modulation (pyruvate kinase/horseradish peroxidase/pyruvate oxidase-coupled ATPase assay). Type of test: biochemical. Conditions: read-out: IC50 Arithmetic Mean. The protocol: In Vitro Model of Dose Dependent Smooth Muscle Myosin Atpase Modulation
Screening assays were performed using a pyruvate kinase and lactate dehydrogenase-coupled ATPase assay containing the following reagents: Potassium PIPES (50 mM ), MgCl2 (3 mM ), KCl (100 mM ), ATP (0.15 mM ), DTT (1 mM ), BSA (0.1 mg/ml), NADH (0.5 mM ), PEP (1.5 mM ), pyruvate kinase (4 U/ml), lactate dehydrogenase (8 U/ml), and antifoam (50 ppm) (concentrations expressed are final assay concentrations). The pH was adjusted to 6.80 at 22° C. by addition of potassium hydroxide. Lead optimization assays were performed with a more sensitive pyruvate kinase/horseradish peroxidase/pyruvate oxidase-coupled ATPase assay containing the following reagents: Potassium PIPES (12 mM ), MgCl2 (2 mM ), KCl (100 mM ), ATP (0.15 mM ), BSA (0.05 mg/ml), potassium phosphate (2 mM ), amplex red (0.1 mM ), PEP (0.1 mM ), pyruvate kinase (4 U/ml), horseradish peroxidase (0.5 U/ml), pyruvate oxidase (0.5 U/ml), and antifoam (50 ppm) (concentrations expressed are final assay concentrations). The pH was adjusted to 7.00 at 22° C. by addition of potassium hydroxide.
The protein components specific to this assay are chicken gizzard smooth muscle myosin subfragment-1 that has been chemically crosslinked to either cardiac or skeletal actin using an excess of 1-Ethyl-3-[3-dimethylaminopropyl]carbodiimide hydrochloride and N-hydroxysuccinimide. The exact concentration of the crosslinked smooth muscle myosin in the assay is determined empirically, by titration to achieve a desired rate of ATP hydrolysis. The concentration varies between protein preparations due to variations in the fraction of active molecules in each preparation.
Compound dose response assays are performed by first preparing a dilution series of test compound, each with an assay mixture containing potassium PIPES, MgCl2, KCl, ATP, BSA, potassium phosphate, amplex red, PEP, crosslinked smooth muscle actomyosin (subfragment-1), antifoam, and water. The assay is started by adding an equal volume of solution containing potassium Pipes, MgCl2, KCl, BSA, potassium phosphate, pyruvate kinase, horseradish peroxidase, pyruvate oxidase, antifoam, and water. ATP hydrolysis is monitored by measuring the fluorescence of amplex red (excitation at 480 nm, emission at 615 nm). The resulting dose response curve is fit by the 4 parameter equation y=Bottom+((Top−Bottom)/(1+((IC50/X)^Hill))). The IC50 is defined as the concentration at which ATPase activity is midway between the top and bottom of the dose response curve.

As usually defined, the IC50 is the point on the concentration scale where inhibition reaches its midpoint.

Molecules are shown by their SMILES.

Take `O=C(NCc1cccnc1)c1ccc(N2CCNCC2=O)nc1NCCc1cccc(F)c1` [Compound 25, (2-{[2-(3-fluorophenyl)ethyl]amino}-6-(2-oxopiperazinyl)(3-pyridyl))-N-(3-pyridylmethyl)carboxamide]: the IC50 was found to be 70.8 µM.

Regarding `CN(C)C(=O)c1ccc(N2CCCCC2=O)nc1NCCc1cccc(F)c1` [Compound 26, (2-{[2-(3-fluorophenyl)ethyl]amino}-6-(2-oxopiperidyl)(3-pyridyl))-N,N-dimethylcarboxamide], the IC50 amounted to 53.4 µM.

Regarding `O=C(NCc1cccnc1)c1ccc(N2CC[C@H](CO)C2)nc1NCCc1cccc(F)c1` [Compound 27, (6-[(3S)-3-(hydroxymethyl)pyrrolidinyl]-2-{[2-(3-fluorophenyl)ethyl]amino}(3-pyridyl))-N-(3-pyridylmethyl)carboxamide], the IC50 is 0.465 µM.

On to `CNC(=O)CNC(=O)c1ccc(N2CCCC2)nc1NCCc1cccc(F)c1` [Compound 28, 2-[(2-{[2-(3-fluorophenyl)ethyl]amino}-6-pyrrolidinyl(3-pyridyl))carbonylamino]-N-methylacetamide], for which the IC50 was found to be 0.329 µM.

`O=C(NCc1cccnc1)c1ccc(N2CC=CC2)nc1NCCc1cccc(F)c1` [Compound 29, (2-{[2-(3-fluorophenyl)ethyl]amino}-6-(3-pyrrolinyl)(3-pyridyl))-N-(3-pyridylmethyl)carboxamide]: the IC50 was determined as 0.154 µM.

As for `N[C@H]1CCN(c2ccc(C(=O)NCc3cccnc3)c(NCCc3cccc(F)c3)n2)C1` [Compound 30, (6-((3S)-3-aminopyrrolidinyl)-2-{[2-(3-fluorophenyl)ethyl]amino}(3-pyridyl))-N-(3-pyridylmethyl)carboxamide], the IC50 was 28.4 µM.

`CN(C)C(=O)N[C@@H]1CCN(c2ccc(C(=O)NCc3cccnc3)c(NCCc3cccc(F)c3)n2)C1` [Compound 31, N-[(3R)-1-(6-{[2-(3-fluorophenyl)ethyl]amino}-5-[N-(3-pyridylmethyl)carbamoyl](2-pyridyl))pyrrolidin-3-yl](dimethylamino)carboxamide]: the IC50 is 67.8 µM.

For the compound `O=C(NCc1cccnc1)c1ccc(N2CCC2)nc1NCCc1cccc(F)c1` [Compound 32, (6-azetidinyl-2-{[2-(3-fluorophenyl)ethyl]amino}(3-pyridyl))-N-(3-pyridylmethyl)carboxamide], the IC50 amounted to 1.17 µM.

On to `O=C(NCc1cccnc1)c1ccc(N2CCCC2)nc1NCCc1ccccn1` [Compound 33, {2-[(2-(2-pyridyl)ethyl)amino]-6-pyrrolidinyl(3-pyridyl)}-N-(3-pyridylmethyl)carboxamide], for which the IC50 was 32.8 µM.

With `CC1CCN(c2ccc(C(=O)NCc3cccnc3)c(NCCc3ccccn3)n2)CC1` [Compound 34, {6-(4-methylpiperidyl)-2-[(2-(2-pyridyl)ethyl)amino](3-pyridyl)}-N-(3-pyridylmethyl)carboxamide], the concentration for half-maximal inhibition (IC50) is 14.3 µM.

Take `O=C(NCc1cccnc1)c1ccc(C2=NCCO2)nc1NCCc1cccc(F)c1` [Compound 35, (2-{[2-(3-fluorophenyl)ethyl]amino}-6-(1,3-oxazolin-2-yl)(3-pyridyl))-N-(3-pyridylmethyl)carboxamide]: the IC50 was found to be 1.5 µM.

Turning to `NCc1ncccc1CNC(=O)c1ccc(N2CC[C@@H](O)C2)nc1NCCc1cccc(F)c1` [Compound 36, (6-((3R)-3-hydroxypyrrolidinyl)-2-{[2-(3-fluorophenyl)ethyl]amino}(3-pyridyl))-N-{[2-(aminomethyl)(3-pyridyl)]methyl}carboxamide], the IC50 came out at 0.327 µM.

Turning to `NCc1ncccc1CNC(=O)c1ccc(C2=CCCC2)nc1NCCc1cccc(F)c1` [Compound 37, N-{[2-(aminomethyl)(3-pyridyl)]methyl}(6-cyclopent-1-enyl-2-{[2-(3-fluorophenyl)ethyl]amino}(3-pyridyl))carboxamide], the IC50 came to 0.0146 µM.

For `NCc1ncccc1CNC(=O)c1ccc(N2CC[C@H](F)C2)nc1NCCc1cccc(F)c1` [Compound 38, (6-((3S)-3-fluoropyrrolidinyl)-2-{[2-(3-fluorophenyl)ethyl]amino}(3-pyridyl))-N-{[2-(aminomethyl)(3-pyridyl)]methyl}carboxamide], the IC50 was found to be 0.0882 µM.

As for `NCc1ncccc1CNC(=O)c1ccc(N2CC[C@@H](F)C2)nc1NCCc1cccc(F)c1` [Compound 39, (6-((3R)-3-fluoropyrrolidinyl)-2-{[2-(3-fluorophenyl)ethyl]amino}(3-pyridyl))-N-{[2-(aminomethyl)(3-pyridyl)]methyl}carboxamide], the IC50 worked out at 0.0313 µM.

In the case of `NCc1ncccc1CNC(=O)c1ccc(N2CCCCC2)nc1NCCc1cccc(F)c1` [Compound 40, N-{[2-(aminomethyl)(3-pyridyl)]methyl}(2-{[2-(3-fluorophenyl)ethyl]amino}-6-piperidyl(3-pyridyl))carboxamide], the half-maximal inhibitory concentration (IC50) is 0.0656 µM.

For `NCc1ncccc1CNC(=O)c1ccc(N2CCCC2)nc1NCCc1cccc(F)c1` [Compound 41, N-{[2-(aminomethyl)(3-pyridyl)]methyl}(2-{[2-(3-fluorophenyl)ethyl]amino}-6-pyrrolidinyl(3-pyridyl))carboxamide], the IC50 turned out to be 0.0297 µM.

As for `CNC(=O)CNC(=O)c1ccc(C2=CCN(C(=O)OC)CC2)nc1NCCc1cccc(F)c1` [Compound 43, methyl 4-(6-{[2-(3-fluorophenyl)ethyl]amino}-5-{N-[(N-methylcarbamoyl)methyl]carbamoyl}-2-pyridyl)-1,2,5,6-tetrahydropyridinecarboxylate], the IC50 worked out at 0.627 µM.

Take `COC(=O)N[C@@H]1CCN(c2ccc(C(=O)NCc3cccnc3)c(NCCc3cccc(F)c3)n2)C1` [Compound 44, N-[(3R)-1-(6-{[2-(3-fluorophenyl)ethyl]amino}-5-[N-(3-pyridylmethyl)carbamoyl](2-pyridyl))pyrrolidin-3-yl]methoxycarboxamide]: the IC50 worked out at 4.5 µM.

As to `O=C(NCc1cccnc1)c1ccc(N2CCCCC2)nc1NCCc1ccccn1` [Compound 45, {6-piperidyl-2-[(2-(2-pyridyl)ethyl)amino](3-pyridyl)}-N-(3-pyridylmethyl)carboxamide], the IC50 was 13.2 µM.

For `N[C@@H]1CCN(c2ccc(C(=O)NCc3cccnc3)c(NCCc3cccc(F)c3)n2)C1` [Compound 46, (6-((3R)-3-aminopyrrolidinyl)-2-{[2-(3-fluorophenyl)ethyl]amino}(3-pyridyl))-N-(3-pyridylmethyl)carboxamide], the IC50 was 35.5 µM.

Take `O=C(NCc1cccnc1)c1ccc(N2CC=CCC2)nc1NCCc1cccc(F)c1` [Compound 47, (2-{[2-(3-fluorophenyl)ethyl]amino}-6-(1,2,5,6-tetrahydropyridyl)(3-pyridyl))-N-(3-pyridylmethyl)carboxamide]: the IC50 worked out at 0.687 µM.

Turning to `O=C(NCc1cccnc1)c1cc(Cl)c(N2CCCC2)nc1NCCc1cccc(F)c1` [Compound 48, (5-chloro-2-{[2-(3-fluorophenyl)ethyl]amino}-6-pyrrolidinyl(3-pyridyl))-N-(3-pyridylmethyl)carboxamide], the half-inhibitory concentration (IC50) was determined as 0.234 µM.

In the case of `N#Cc1cc(C(=O)NCc2cccnc2)c(NCCc2cccc(F)c2)nc1N1CCCC1` [Compound 49, (5-cyano-2-{[2-(3-fluorophenyl)ethyl]amino}-6-pyrrolidinyl(3-pyridyl))-N-(3-pyridylmethyl)carboxamide], the IC50 amounted to 0.165 µM.

Consider `COC(=O)N1CCN=C1c1ccc(C(=O)NCc2cccnc2)c(NCCc2cccc(F)c2)n1` [Compound 50, methyl 2-(6-{[2-(3-fluorophenyl)ethyl]amino}-5-[N-(3-pyridylmethyl)carbamoyl]-2-pyridyl)-2-imidazolinecarboxylate], for which the 50% inhibitory concentration (IC50) turned out to be 21.2 µM.

Turning to `N#CN1CCN=C1c1ccc(C(=O)NCc2cccnc2)c(NCCc2cccc(F)c2)n1` [Compound 51, (6-(1-cyano(2-imidazolin-2-yl))-2-{[2-(3-fluorophenyl)ethyl]amino}(3-pyridyl))-N-(3-pyridylmethyl)carboxamide], the IC50 was 0.435 µM.

As to `NCCCN1C(=O)CC[C@@H]1CNC(=O)c1cc(F)c(N2CCCC2)nc1NCCc1cccc(F)c1` [Compound 52, N-{[(2R)-1-(3-aminopropyl)-5-oxopyrrolidin-2-yl]methyl}(5-fluoro-2-{[2-(3-fluorophenyl)ethyl]amino}-6-pyrrolidinyl(3-pyridyl))carboxamide], the IC50 came out at 0.119 µM.
